Calls of active or inactive are those of the source. No cut-off for these calls is given here. Bounds are passed on as bounds.

Assay [1] addresses T1, Hypoxia-inducible factor 1-alpha (Homo sapiens, UniProt Q16665). Description: Inhibition of hypoxia induced HIF1-alpha transcriptional activity in human AGS cells by reporter gene assay. The assay is classed as cell-based. (Reporter assays use an easily measured gene product as a stand-in for the process of interest.)
Assay [2] concerns the target T1, Hypoxia-inducible factor 1-alpha. Put plainly: Inhibition of hypoxia induced HIF1-alpha transcriptional activity in human Sk-Hep1 cells by reporter gene assay. The assay is classed as cell-based.
Assay [3] shares this target. Description: Inhibition of hypoxia induced HIF1-alpha transcriptional activity in human Hep3B cells by reporter gene assay. The format is cell-based. Conditions: hep 3b2.
Assay [4] can be described thus: Suppression of hypoxia induced GAPDH mRNA expression in human Hep3B cells by RT-PCR. The note with it: Hep 3B2. The assay is classed as functional, cell-based.
Assay [5] is described as follows: Suppression of hypoxia induced VEGF expression in human Hep3B cells by RT-PCR. The assay is classed as functional, cell-based. Conditions: Hep 3B2.
Assay [6] can be described thus: Suppression of hypoxia induced EPO expression in human Hep3B cells by RT-PCR. The assay is classed as functional, cell-based. The note with it: Hep 3B2.
A short description of assay [7]: Suppression of hypoxia induced HIF1-alpha mRNA expression in human Hep3B cells by RT-PCR. The format is functional, cell-based. Conditions: Hep 3B2.

T1 sequence (Q16665 whole entry): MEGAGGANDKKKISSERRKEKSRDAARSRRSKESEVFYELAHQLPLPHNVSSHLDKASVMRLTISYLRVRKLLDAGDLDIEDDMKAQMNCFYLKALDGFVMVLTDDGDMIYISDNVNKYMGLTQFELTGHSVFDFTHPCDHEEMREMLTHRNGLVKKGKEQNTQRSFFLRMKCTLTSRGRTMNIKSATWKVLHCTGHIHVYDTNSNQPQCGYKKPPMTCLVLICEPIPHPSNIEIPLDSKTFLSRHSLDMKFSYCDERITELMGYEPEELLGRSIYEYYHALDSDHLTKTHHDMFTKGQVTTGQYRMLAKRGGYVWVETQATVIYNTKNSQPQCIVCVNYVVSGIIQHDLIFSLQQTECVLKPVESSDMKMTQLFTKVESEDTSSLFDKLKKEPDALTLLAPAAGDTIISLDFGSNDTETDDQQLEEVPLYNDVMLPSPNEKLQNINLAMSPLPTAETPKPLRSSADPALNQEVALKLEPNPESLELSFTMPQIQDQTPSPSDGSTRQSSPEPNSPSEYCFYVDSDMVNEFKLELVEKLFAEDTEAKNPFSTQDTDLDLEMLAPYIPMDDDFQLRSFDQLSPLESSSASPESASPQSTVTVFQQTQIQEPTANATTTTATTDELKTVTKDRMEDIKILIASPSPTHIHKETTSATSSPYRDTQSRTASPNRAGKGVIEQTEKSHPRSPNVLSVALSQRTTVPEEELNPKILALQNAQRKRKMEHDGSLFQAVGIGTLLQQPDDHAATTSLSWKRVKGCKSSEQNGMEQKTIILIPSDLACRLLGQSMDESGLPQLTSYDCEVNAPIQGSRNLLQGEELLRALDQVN

As to `COC(=O)c1cncc(NC(=O)COc2ccc(C34CC5CC(CC(C5)C3)C4)cc2)c1`, the figures for the IC50 in assay [1], in assay [2] and in assay [3] were 5 µM, above 30 µM and 5.9 µM, respectively.
Consider `COC(=O)c1cccc(NC(=O)COc2ccc(C34CC5CC(CC(C5)C3)C4)cc2)c1`, for which the IC50 (usually the point on the concentration scale where inhibition reaches its midpoint) was determined as 0.7 µM in assay [1] and 2.6 µM in assay [3].
For `O=C(COc1ccc(C23CC4CC(CC(C4)C2)C3)cc1)Nc1cncc(C(=O)NCCc2ccncc2)c1`, the values for the IC50 in assay [1], in assay [2] and in assay [3] were 1.3 µM, above 30 µM and above 30 µM, respectively.
For `COC(=O)c1ccnc(NC(=O)COc2ccc(C34CC5CC(CC(C5)C3)C4)cc2)c1`, the IC50 turned out to be 2 µM in assay [1], 1.03 µM in assay [2] and 1.2 µM in assay [3].
On the same counts, the results for `O=C(COc1ccc(C23CC4CC(CC(C4)C2)C3)cc1)Nc1cncc(C(=O)NCCCn2ccnc2)c1` are above 10 µM, 1.9 µM and above 10 µM.
Turning to `NC(=O)c1ccnc(NC(=O)COc2ccc(C34CC5CC(CC(C5)C3)C4)cc2)c1`, the outcome in assay [4] and in assay [7] was inactive. In addition, the Activity entry in assay [5] and in assay [6] was “Dose-dependent effect” each time. Further, the values for the concentration for half-maximal inhibition (IC50) in assay [1], in assay [2] and in assay [3] were 1.8 µM, 0.6 µM and 3.1 µM, respectively.
As to `NC(=O)c1cncc(NC(=O)COc2ccc(C34CC5CC(CC(C5)C3)C4)cc2)c1`, the half-inhibitory concentration (IC50) is 0.9 µM in assay [1], 11.9 µM in assay [2] and above 10 µM in assay [3].
The like results for `O=C(COc1ccc(C23CC4CC(CC(C4)C2)C3)cc1)Nc1cc(C(=O)NCCCn2ccnc2)ccn1` were, in that order, 11 µM, 0.9 µM and 11.2 µM.
On to `O=C(COc1ccc(C23CC4CC(CC(C4)C2)C3)cc1)Nc1cccc(C(=O)O)c1`, for which the IC50 in assay [1] came out at 0.35 µM; in assay [3], 0.4 µM.
Regarding `O=C(COc1ccc(C23CC4CC(CC(C4)C2)C3)cc1)Nc1cncc(C(=O)O)c1`, the IC50 in assay [1], in assay [2] and in assay [3] was above 30 µM throughout.
In the case of `O=C(COc1ccc(C23CC4CC(CC(C4)C2)C3)cc1)Nc1cc(C(=O)NCCc2ccncc2)ccn1`, the results for the IC50 in assay [1], in assay [2] and in assay [3] were 5.2 µM, 3.4 µM and 3.4 µM, respectively.
For `O=C(COc1ccc(C23CC4CC(CC(C4)C2)C3)cc1)Nc1cc(C(=O)NCc2ccco2)ccn1`, the IC50 in assay [1], in assay [2] and in assay [3] was above 30 µM each time.
Regarding `O=C(COc1ccc(C23CC4CC(CC(C4)C2)C3)cc1)Nc1cc(C(=O)Nc2ccc(Cl)cc2)ccn1`, the IC50 in assay [1] was 18.6 µM; in assay [2], 2.5 µM; in assay [3] it was above 30 µM.
On the same counts, the results for `O=C(COc1ccc(C23CC4CC(CC(C4)C2)C3)cc1)Nc1cncc(C(=O)NCc2ccco2)c1` are 30 µM, 4.1 µM and above 30 µM.
On the same counts, the results for `O=C(COc1ccc(C23CC4CC(CC(C4)C2)C3)cc1)Nc1cc(C(=O)O)ccn1` are 0.8 µM, 2 µM and 1 µM.

For the origin of these results see ChEMBL document CHEMBL1140511, “Synthesis of (aryloxyacetylamino)-isonicotinic/nicotinic acid analogues as potent hypoxia-inducible factor (HIF)-1alpha inhibitors” (Bioorg Med Chem Lett, 2007).
